Experimental findings from PubChem BioAssay (NCI) are described below.

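Dose response: 5 concentrations. Exposure: 48 h. Format: 96-well plates. Endpoint: linear interpolation; highest concentration if not reached. GI50 = concentration required for 50% inhibition of growth. At the TGI there is no net growth.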

Test systems include DU-145 prostate; M14 melanoma; SK-MEL-28 melanoma; HL-60(TB) leukemia; MOLT-4 leukemia; COLO 205 colon; NCI-H226 lung; OVCAR-5 ovarian.
Assay in all cases: inhibition of tumour cell growth, NCI panel, 48 h

As to `O=C([O][Hg][CH2]C1OCCOC1[CH2][Hg][O]C(=O)c1ccccc1)c1ccccc1` (stereo not drawn), the GI50 in the experiment with DU-145 prostate is 16.1 µM; with M14 melanoma, 5.2 µM; with SK-MEL-28 melanoma, 5.13 µM; in the experiment on HL-60(TB) leukemia, 2.67 µM; in the experiment on MOLT-4 leukemia, 2.13 µM; in the experiment on COLO 205 colon it was 1.82 µM. The GI50 is 22.5 µM in the experiment with NCI-H226 lung and 22.3 µM with OVCAR-5 ovarian. Moreover, the TGI in the experiment on DU-145 prostate amounted to 29.6 µM; with M14 melanoma, 9.52 µM; with SK-MEL-28 melanoma, 16.8 µM; in the experiment with HL-60(TB) leukemia it was 7.41 µM; in the experiment with MOLT-4 leukemia it was 5.37 µM; in the experiment on COLO 205 colon, 3.27 µM. Also, the TGI with NCI-H226 lung is 47.3 µM; with OVCAR-5 ovarian, 36.7 µM.

With `CCCCCCCCC/C(=N\NC(=O)c1ccncc1)c1ccc(O)c(O)c1O`, the GI50 in the experiment on DU-145 prostate was 0.274 µM; in the experiment on M14 melanoma, 0.175 µM; in the experiment on SK-MEL-28 melanoma, 0.384 µM; in the experiment with HL-60(TB) leukemia, 0.288 µM; with MOLT-4 leukemia, 0.246 µM; in the experiment with COLO 205 colon, 0.617 µM. Moreover, the GI50 in the experiment on NCI-H226 lung was 0.271 µM; in the experiment on OVCAR-5 ovarian it was 0.765 µM. Further, the TGI with DU-145 prostate is > 100 µM; in the experiment on M14 melanoma it was 1.14 µM; with SK-MEL-28 melanoma, > 100 µM; with HL-60(TB) leukemia it was 0.955 µM; in the experiment on MOLT-4 leukemia, 25.3 µM; in the experiment with COLO 205 colon it was 17.4 µM. For the same compound, the TGI in the experiment on NCI-H226 lung was determined as 14.7 µM; in the experiment with OVCAR-5 ovarian, 78.6 µM.

Consider `CN1CCC2(CC1)NC(=O)c1c(c3ccc(Cl)c(Cl)c3n1C)C2C#N` (stereo not drawn), for which the GI50 with DU-145 prostate was 6.01 µM; with M14 melanoma it was 2.73 µM; in the experiment on SK-MEL-28 melanoma, 1.92 µM; in the experiment with HL-60(TB) leukemia, 3.91 µM; with MOLT-4 leukemia, 4.52 µM; in the experiment on COLO 205 colon it was 1.8 µM. In addition, the GI50 is 6.52 µM in the experiment with NCI-H226 lung and 8.67 µM in the experiment with OVCAR-5 ovarian. Also, the TGI in the experiment on DU-145 prostate was 15.2 µM; in the experiment on M14 melanoma, 8.5 µM; in the experiment with SK-MEL-28 melanoma, 3.89 µM; in the experiment with HL-60(TB) leukemia it was > 22.6 µM; in the experiment on MOLT-4 leukemia, > 28 µM; in the experiment on COLO 205 colon, 3.83 µM. Moreover, the TGI with NCI-H226 lung was 30.7 µM; in the experiment with OVCAR-5 ovarian, 24.3 µM.

On to `[Cl][Hg][c]1ccc(Cl)s1`, for which the GI50 with DU-145 prostate is 4.56 µM; with M14 melanoma, 1.55 µM; with SK-MEL-28 melanoma it was 1.42 µM; in the experiment on HL-60(TB) leukemia, 2.1 µM; in the experiment with MOLT-4 leukemia it was 1.64 µM; in the experiment on COLO 205 colon it was 1.39 µM. For the same compound, the results for the GI50 in the experiment with NCI-H226 lung and in the experiment on OVCAR-5 ovarian were 4.71 µM and 1.72 µM, respectively. Also, the TGI in the experiment with DU-145 prostate came out at 17.6 µM; in the experiment on M14 melanoma it was 3.17 µM; with SK-MEL-28 melanoma it was 2.87 µM; in the experiment on HL-60(TB) leukemia it was 6.29 µM; in the experiment on MOLT-4 leukemia, 6.68 µM; in the experiment with COLO 205 colon it was 2.9 µM. The TGI with NCI-H226 lung is 28.6 µM; with OVCAR-5 ovarian it was 3.29 µM.

Take `N#Cc1c(N2CCOCC2)nc(=S)[nH]c1-c1ccccc1`: the GI50 is 31 µM in the experiment on DU-145 prostate; 19.9 µM in the experiment with M14 melanoma; 20.5 µM with SK-MEL-28 melanoma; 15.3 µM in the experiment with HL-60(TB) leukemia; 10.7 µM with MOLT-4 leukemia; 19 µM in the experiment on COLO 205 colon. Moreover, the values for the GI50 in the experiment on NCI-H226 lung and in the experiment on OVCAR-5 ovarian were 14.3 µM and 18.3 µM, respectively. Further, the TGI with DU-145 prostate, in the experiment with M14 melanoma, in the experiment with SK-MEL-28 melanoma, with HL-60(TB) leukemia, with MOLT-4 leukemia and with COLO 205 colon was > 100 µM in each case. In addition, the TGI in the experiment with NCI-H226 lung and in the experiment with OVCAR-5 ovarian was > 100 µM throughout.

Regarding `S=C(NCCNC(=S)[S][Sn]([c]1ccccc1)([c]1ccccc1)[c]1ccccc1)[S][Sn]([c]1ccccc1)([c]1ccccc1)[c]1ccccc1`, the GI50 in the experiment on DU-145 prostate is 0.0181 µM; in the experiment with M14 melanoma, 0.0267 µM; with SK-MEL-28 melanoma it was 0.0237 µM; with HL-60(TB) leukemia, 0.093 µM; in the experiment with MOLT-4 leukemia it was 0.0222 µM; in the experiment with COLO 205 colon, 0.0166 µM. Further, the GI50 is 0.0639 µM in the experiment on NCI-H226 lung and 0.0496 µM in the experiment on OVCAR-5 ovarian. In addition, the TGI is 0.0542 µM in the experiment with DU-145 prostate; 0.0976 µM in the experiment on M14 melanoma; 0.0817 µM with SK-MEL-28 melanoma; 0.312 µM in the experiment with HL-60(TB) leukemia; 0.309 µM in the experiment with MOLT-4 leukemia; 0.0411 µM in the experiment with COLO 205 colon. Also, the TGI with NCI-H226 lung was determined as 0.144 µM; with OVCAR-5 ovarian, 0.123 µM.

In the case of `Cn1nc(C(F)(F)F)cc1-c1c[nH]c(OCc2ccc(Cl)cc2)c(-c2ccc(Cl)c(C(F)(F)F)c2)c1=O`, the GI50 in the experiment with DU-145 prostate was 1.64 µM; with M14 melanoma, 1.27 µM; with SK-MEL-28 melanoma, 1.07 µM; in the experiment on HL-60(TB) leukemia it was 1.09 µM; with MOLT-4 leukemia, 1.16 µM; with COLO 205 colon, 0.935 µM. Further, the GI50 in the experiment with NCI-H226 lung was 1.26 µM; with OVCAR-5 ovarian, 1.71 µM. Besides, the TGI in the experiment on DU-145 prostate was > 50 µM; in the experiment on M14 melanoma, 4.26 µM; with SK-MEL-28 melanoma, 3.97 µM; with HL-60(TB) leukemia it was 2.55 µM; in the experiment on MOLT-4 leukemia it was 3.03 µM; with COLO 205 colon it was 1.97 µM. The TGI was 4.27 µM with NCI-H226 lung and > 32.8 µM in the experiment with OVCAR-5 ovarian.

In the case of `C[C@@H](NC(=O)/C(C#N)=C/c1ccc([N+](=O)[O-])cc1)c1ccccc1`, the GI50 in the experiment on DU-145 prostate is 2.07 µM; with M14 melanoma, 2.05 µM; in the experiment on SK-MEL-28 melanoma, 1.95 µM; with HL-60(TB) leukemia, 2.42 µM; in the experiment with MOLT-4 leukemia, 3.02 µM; in the experiment on COLO 205 colon, 2 µM. The GI50 in the experiment with NCI-H226 lung is 1.78 µM; in the experiment on OVCAR-5 ovarian it was 1.96 µM. In addition, the TGI in the experiment with DU-145 prostate was 4.33 µM; in the experiment with M14 melanoma, 4.42 µM; in the experiment with SK-MEL-28 melanoma, 3.83 µM; with HL-60(TB) leukemia it was 5.51 µM; with MOLT-4 leukemia, 7.3 µM; with COLO 205 colon it was 3.71 µM. The TGI in the experiment with NCI-H226 lung was determined as 3.69 µM; in the experiment on OVCAR-5 ovarian, 4.06 µM.
